Measurements reported in patent US20120035444A1, “INTRAVITAL SAMPLE DEVICE FOR IN VIVO DRUG SCREENING” (NATIONAL TAIWAN UNIVERSITY, priority 2008, published 2012).

Tested on: liver
Details: feeding for 10 days (FIG. 8)
Source text: Two-photon microscopy was used to observe living organism. […] The multiphoton microscope is illustrated in FIG. 5. […] The SHG signal was collected in the backscattering geometry.
When the liver was damaged, the function of hepatocytes would also be damaged. In the present invention, CCl4 was applied to simulate the reaction of hepatocyte when the liver was toxic.

## ClC(Cl)(Cl)Cl [CCl4]
  liver state after feeding CCl4: fibrosis
